{
  "source": "the supplement of paper PMC10307832",
  "test_in_all_cases": "relative viability (nuclei count vs DMSO), 5 days (fraction); higher = more cells survive",
  "key": {"[1]": {"compound": "CN(C/C=C/C1=CC=C(C=C1)Cl)CC2=CC=CC=C2N(CCO)S(=O)(=O)C3=CC=C(C=C3)OC [KN-93] + N=C(N)NC(=N)NCCc1ccccc1 [Phenformin] (partner 250 µM)", "summary_of_the_method": "(§1)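 After 5 days of treatment, lung cancer cells in 1536-well plates were fixed and stained in a single step (final 0.05% Triton X-100, 1% formaldehyde, 1 ug/ml Hoechst) and their nuclei counted on 4× images. Treatment had been applied by pin tool the day after seeding as one drug alone or as a fixed anchor-drug dose with five library-drug doses (not always all listed) in √10 steps. Relative viability is the nuclei count of treated wells divided by that of vehicle wells, and values are medians of duplicate plates.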"}, "[2]": {"compound": "CN(C/C=C/C1=CC=C(C=C1)Cl)CC2=CC=CC=C2N(CCO)S(=O)(=O)C3=CC=C(C=C3)OC [KN-93] + Nc1nc2[nH]cc(CCc3ccc(C(=O)N[C@@H](CCC(=O)O)C(=O)O)cc3)c2c(=O)[nH]1 [Pemetrexed] (partner 0.2 µM)", "summary_of_the_method": "as §1"}, "[3]": {"compound": "CN(C/C=C/C1=CC=C(C=C1)Cl)CC2=CC=CC=C2N(CCO)S(=O)(=O)C3=CC=C(C=C3)OC [KN-93] + C[C@]1(O)C[C@@H](c2nc(-c3ccc4ccc(-c5ccccc5)nc4c3)c3c(N)nccn32)C1 [Linsitinib] (partner 1 µM)", "summary_of_the_method": "as §1"}, "[4]": {"compound": "CN(C/C=C/C1=CC=C(C=C1)Cl)CC2=CC=CC=C2N(CCO)S(=O)(=O)C3=CC=C(C=C3)OC [KN-93] + Cc1cc(Nc2cc(N3CCN(C)CC3)nc(Sc3ccc(NC(=O)C4CC4)cc3)n2)n[nH]1 [Tozasertib] (partner 0.1 µM)", "summary_of_the_method": "as §1"}, "[5]": {"compound": "CN(C/C=C/C1=CC=C(C=C1)Cl)CC2=CC=CC=C2N(CCO)S(=O)(=O)C3=CC=C(C=C3)OC [KN-93] + CC(C)C[C@H](NC(=O)[C@H](Cc1ccccc1)NC(=O)c1cnccn1)B(O)O [Bortezomib] (partner 0.002 µM)", "summary_of_the_method": "as §1"}},
  "data": [
    {"cell line": "NCI-H1395", "values": [
      {"measurement": "relative viability", "setting": "[1]; first compound 0.08 µM", "value": 0.477},
      {"measurement": "relative viability", "setting": "[1]; first compound 0.253 µM", "value": 0.449},
      {"measurement": "relative viability", "setting": "[1]; first compound 2.53 µM", "value": 0.48},
      {"measurement": "relative viability", "setting": "[1]; first compound 8 µM", "value": 0.449},
      {"measurement": "relative viability", "setting": "[2]; first compound 0.08 µM", "value": 0.972},
      {"measurement": "relative viability", "setting": "[2]; first compound 0.253 µM", "value": 0.926},
      {"measurement": "relative viability", "setting": "[2]; first compound 2.53 µM", "value": 0.86},
      {"measurement": "relative viability", "setting": "[2]; first compound 8 µM", "value": 0.489},
      {"measurement": "relative viability", "setting": "[3]; first compound 0.08 µM", "value": 1.66},
      {"measurement": "relative viability", "setting": "[3]; first compound 0.253 µM", "value": 1.13},
      {"measurement": "relative viability", "setting": "[3]; first compound 2.53 µM", "value": 1.07},
      {"measurement": "relative viability", "setting": "[3]; first compound 8 µM", "value": 0.427},
      {"measurement": "relative viability", "setting": "[4]; first compound 0.08 µM", "value": 0.733},
      {"measurement": "relative viability", "setting": "[4]; first compound 0.253 µM", "value": 0.671},
      {"measurement": "relative viability", "setting": "[4]; first compound 2.53 µM", "value": 0.8},
      {"measurement": "relative viability", "setting": "[4]; first compound 8 µM", "value": 0.476}
    ]},
    {"cell line": "NCI-H1944", "values": [
      {"measurement": "relative viability", "setting": "[1]; first compound 0.08 µM", "value": 0.172},
      {"measurement": "relative viability", "setting": "[1]; first compound 0.253 µM", "value": 0.216},
      {"measurement": "relative viability", "setting": "[1]; first compound 2.53 µM", "value": 0.218},
      {"measurement": "relative viability", "setting": "[1]; first compound 8 µM", "value": 0.195},
      {"measurement": "relative viability", "setting": "[2]; first compound 0.08 µM", "value": 0.599},
      {"measurement": "relative viability", "setting": "[2]; first compound 0.253 µM", "value": 0.598},
      {"measurement": "relative viability", "setting": "[2]; first compound 2.53 µM", "value": 0.545},
      {"measurement": "relative viability", "setting": "[2]; first compound 8 µM", "value": 0.57},
      {"measurement": "relative viability", "setting": "[3]; first compound 0.08 µM", "value": 1.29},
      {"measurement": "relative viability", "setting": "[3]; first compound 0.253 µM", "value": 1.21},
      {"measurement": "relative viability", "setting": "[3]; first compound 2.53 µM", "value": 1.11},
      {"measurement": "relative viability", "setting": "[3]; first compound 8 µM", "value": 1.02},
      {"measurement": "relative viability", "setting": "[4]; first compound 0.08 µM", "value": 0.269},
      {"measurement": "relative viability", "setting": "[4]; first compound 0.253 µM", "value": 0.221},
      {"measurement": "relative viability", "setting": "[4]; first compound 2.53 µM", "value": 0.257},
      {"measurement": "relative viability", "setting": "[4]; first compound 8 µM", "value": 0.218}
    ]},
    {"cell line": "NCI-H522", "values": [
      {"measurement": "relative viability", "setting": "[1]; first compound 0.08 µM", "value": 0.666},
      {"measurement": "relative viability", "setting": "[1]; first compound 0.253 µM", "value": 0.704},
      {"measurement": "relative viability", "setting": "[1]; first compound 2.53 µM", "value": 0.741},
      {"measurement": "relative viability", "setting": "[1]; first compound 8 µM", "value": 0.636},
      {"measurement": "relative viability", "setting": "[2]; first compound 0.08 µM", "value": 1.02},
      {"measurement": "relative viability", "setting": "[2]; first compound 0.253 µM", "value": 0.987},
      {"measurement": "relative viability", "setting": "[2]; first compound 2.53 µM", "value": 1.29},
      {"measurement": "relative viability", "setting": "[2]; first compound 8 µM", "value": 0.779},
      {"measurement": "relative viability", "setting": "[4]; first compound 0.08 µM", "value": 0.551},
      {"measurement": "relative viability", "setting": "[4]; first compound 0.253 µM", "value": 0.536},
      {"measurement": "relative viability", "setting": "[4]; first compound 2.53 µM", "value": 0.566},
      {"measurement": "relative viability", "setting": "[4]; first compound 8 µM", "value": 0.511}
    ]},
    {"cell line": "NCI-H727", "values": [
      {"measurement": "relative viability", "setting": "[5]; first compound 0.08 µM", "value": 0.66},
      {"measurement": "relative viability", "setting": "[5]; first compound 0.253 µM", "value": 0.853},
      {"measurement": "relative viability", "setting": "[5]; first compound 2.53 µM", "value": 0.785},
      {"measurement": "relative viability", "setting": "[5]; first compound 8 µM", "value": 0.391},
      {"measurement": "relative viability", "setting": "[1]; first compound 0.08 µM", "value": 0.576},
      {"measurement": "relative viability", "setting": "[1]; first compound 0.253 µM", "value": 0.601},
      {"measurement": "relative viability", "setting": "[1]; first compound 2.53 µM", "value": 0.814},
      {"measurement": "relative viability", "setting": "[1]; first compound 8 µM", "value": 0.533},
      {"measurement": "relative viability", "setting": "[3]; first compound 0.08 µM", "value": 0.292},
      {"measurement": "relative viability", "setting": "[3]; first compound 0.253 µM", "value": 0.223},
      {"measurement": "relative viability", "setting": "[3]; first compound 2.53 µM", "value": 0.256},
      {"measurement": "relative viability", "setting": "[3]; first compound 8 µM", "value": 0.223},
      {"measurement": "relative viability", "setting": "[4]; first compound 0.08 µM", "value": 0.689},
      {"measurement": "relative viability", "setting": "[4]; first compound 0.253 µM", "value": 0.658},
      {"measurement": "relative viability", "setting": "[4]; first compound 2.53 µM", "value": 0.465},
      {"measurement": "relative viability", "setting": "[4]; first compound 8 µM", "value": 0.447}
    ]},
    {"cell line": "SW 900", "values": [
      {"measurement": "relative viability", "setting": "[1]; first compound 0.08 µM", "value": 0.547},
      {"measurement": "relative viability", "setting": "[1]; first compound 0.253 µM", "value": 0.474},
      {"measurement": "relative viability", "setting": "[1]; first compound 2.53 µM", "value": 0.656},
      {"measurement": "relative viability", "setting": "[1]; first compound 8 µM", "value": 0.554},
      {"measurement": "relative viability", "setting": "[2]; first compound 0.08 µM", "value": 0.522},
      {"measurement": "relative viability", "setting": "[2]; first compound 0.253 µM", "value": 0.517},
      {"measurement": "relative viability", "setting": "[2]; first compound 2.53 µM", "value": 0.491},
      {"measurement": "relative viability", "setting": "[2]; first compound 8 µM", "value": 0.47},
      {"measurement": "relative viability", "setting": "[4]; first compound 0.08 µM", "value": 0.529},
      {"measurement": "relative viability", "setting": "[4]; first compound 0.253 µM", "value": 0.544},
      {"measurement": "relative viability", "setting": "[4]; first compound 2.53 µM", "value": 0.598},
      {"measurement": "relative viability", "setting": "[4]; first compound 8 µM", "value": 0.368}
    ]}
  ]
}
